From patent US11439618B2, “Compositions and methods for lowering triglycerides” (Amarin Pharmaceuticals Ireland Limited, priority 2009, dated 2022)

Test: Essential fatty acid (EFA) parameters in plasma and RBC, gas chromatography of fatty acid methyl esters
Format: in vivo, human
Experimental: Blood samples (10 mL) were collected at Visit 1 (screening) and at Visits 4, 5 and 6. Analysis was performed by MSR Lipid Analysis, Scottish Crop Research Institute, Dundee, UK. The screening sample acted as baseline for the EFA measurements. Lipid was extracted from plasma, serum and RBC suspensions and converted into fatty acid methyl esters which were analyzed by gas chromatography to give fatty acid profiles as micrograms fatty acid per gram of sample (μgFA/g) and normalized area percent.
RBC and plasma EFA data were collected at baseline, Day 14, 28 and 42 and summarized by visit for each treatment group. Change from baseline and percent change from baseline were also summarized. ANCOVA comparison of ethyl-EPA dose groups and ethyl-EPA versus placebo was performed.
Notable changes for these parameters occurred in the ethyl-EPA treatment groups at Days 14, 28 and 42 compared to placebo.

[1] = plasma, 1 g daily group, Baseline
[2] = plasma, 2 g daily group, Baseline
[3] = plasma, 4 g daily group, Baseline

In the case of `CC/C=C\C/C=C\C/C=C\C/C=C\C/C=C\CCCC(=O)OCC` [Ethyl-EPA, all-cis eicosa-5,8,11,14,17-pentaenoic acid ethyl ester], the “EPA, DPAn-3 and EPA/AA ratio values, change from baseline” value (plasma and RBC, to Day 42, 1, 2 and 4 g) was “increased substantially from baseline”, the “AA, DHA and DGLA values, change from baseline” value (plasma and RBC, to day 42, 1, 2 and 4 g) was “decreased substantially from baseline” and the “AA Mean at Baseline” value [1] was 202.5 µg/g. The “DGLA Mean at Baseline” value [1] was 51.2 µg/g, the “DHA Mean at Baseline” value [1] was 73.1 µg/g and the “DPAn-3 Mean at Baseline” value [1] was 21.1 µg/g. The “EPA Mean at Baseline” value [1] was 48.3 µg/g, the “EPA/AA Mean (SD) at Baseline” value [1] was 0.2 (0.14) and the “AA Mean change from Baseline” value (plasma, 1 g daily, Day 14) was -9.7 µg/g. For the same molecule, the “DGLA Mean change from Baseline” value (plasma, 1 g daily, Day 14) was -10.4 µg/g, the “DHA Mean change from Baseline” value (plasma, 1 g daily, Day 14) was -6.4 µg/g and the “DPAn-3 Mean change from Baseline” value (plasma, 1 g daily, Day 14) was 7.5 µg/g. The “EPA Mean change from Baseline” value (plasma, 1 g daily, Day 14) was 61.2 µg/g, the “EPA/AA Mean (SD) change from Baseline” value (plasma, 1 g daily, Day 14) was 0.3 (0.4) and the “AA Mean change from Baseline” value (plasma, 1 g daily, Day 28) was -11.3 µg/g. For the same molecule, the “DGLA Mean change from Baseline” value (plasma, 1 g daily, Day 28) was -10.6 µg/g, the “DHA Mean change from Baseline” value (plasma, 1 g daily, Day 28) was -6.6 µg/g and the “DPAn-3 Mean change from Baseline” value (plasma, 1 g daily, Day 28) was 8.9 µg/g. For the same molecule, the “EPA Mean change from Baseline” value (plasma, 1 g daily, Day 28) was 60.3 µg/g, the “EPA/AA Mean (SD) change from Baseline” value (plasma, 1 g daily, Day 28) was 0.3 (0.20) and the “AA Mean change from Baseline” value (plasma, 1 g daily, Day 42) was -8.7 µg/g. The “DGLA Mean change from Baseline” value (plasma, 1 g daily, Day 42) was -9.4 µg/g, the “DHA Mean change from Baseline” value (plasma, 1 g daily, Day 42) was -5.4 µg/g and the “DPAn-3 Mean change from Baseline” value (plasma, 1 g daily, Day 42) was 11.3 µg/g. The “EPA Mean change from Baseline” value (plasma, 1 g daily, Day 42) was 62.0 µg/g, the “EPA/AA Mean (SD) change from Baseline” value (plasma, 1 g daily, Day 42) was 0.3 (0.24) and the “AA LS Mean, 1 or 2 g versus 4 g” value (plasma, 1 g versus 4 g) was 4.2 µg/g. For the same molecule, the “DGLA LS Mean, 1 or 2 g versus 4 g” value (plasma, 1 g versus 4 g) was 3.7 µg/g, the “DHA LS Mean, 1 or 2 g versus 4 g” value (plasma, 1 g versus 4 g) was -0.8 µg/g and the “DPAn-3 LS Mean, 1 or 2 g versus 4 g” value (plasma, 1 g versus 4 g) was -15.1 µg/g. The “EPA LS Mean, 1 or 2 g versus 4 g” value (plasma, 1 g versus 4 g) was -111.8 µg/g, the “EPA/AA LS Mean, 1 or 2 g versus 4 g” value (plasma, 1 g versus 4 g) was −0.66 and the “AA Mean at Baseline” value [2] was 227.3 µg/g. The “DGLA Mean at Baseline” value [2] was 53.5 µg/g, the “DHA Mean at Baseline” value [2] was 75.1 µg/g and the “DPAn-3 Mean at Baseline” value [2] was 19.7 µg/g. For the same molecule, the “EPA Mean at Baseline” value [2] was 4.49 µg/g, the “EPA/AA Mean at Baseline” value [2] was 0.2 and the “AA Mean change from Baseline” value (plasma, 2 g daily, Day 14) was -13.9 µg/g. For the same molecule, the “DGLA Mean change from Baseline” value (plasma, 2 g daily, Day 14) was -14.1 µg/g, the “DHA Mean change from Baseline” value (plasma, 2 g daily, Day 14) was -5.4 µg/g and the “DPAn-3 Mean change from Baseline” value (plasma, 2 g daily, Day 14) was 17.4 µg/g. The “EPA Mean change from Baseline” value (plasma, 2 g daily, Day 14) was 124.6 µg/g, the “EPA/AA Mean change from Baseline” value (plasma, 2 g daily, Day 14) was 0.6 and the “AA Mean change from Baseline” value (plasma, 2 g daily, Day 28) was 21.6 µg/g. For the same molecule, the “DGLA Mean change from Baseline” value (plasma, 2 g daily, Day 28) was -16.2 µg/g, the “DHA Mean change from Baseline” value (plasma, 2 g daily, Day 28) was -8.1 µg/g and the “DPAn-3 Mean change from Baseline” value (plasma, 2 g daily, Day 28) was 19.4 µg/g. The “EPA Mean change from Baseline” value (plasma, 2 g daily, Day 28) was 142.2 µg/g, the “EPA/AA Mean change from Baseline” value (plasma, 2 g daily, Day 28) was 0.8 and the “AA Mean change from Baseline” value (plasma, 2 g daily, Day 42) was -27.3 µg/g. For the same molecule, the “DGLA Mean change from Baseline” value (plasma, 2 g daily, Day 42) was -17.3 µg/g, the “DHA Mean change from Baseline” value (plasma, 2 g daily, Day 42) was -6.0 µg/g and the “DPAn-3 Mean change from Baseline” value (plasma, 2 g daily, Day 42) was 19.3 µg/g. The “EPA Mean change from Baseline” value (plasma, 2 g daily, Day 42) was 133.4 µg/g, the “EPA/AA Mean change from Baseline” value (plasma, 2 g daily, Day 42) was 0.7 and the “AA LS Mean, 1 or 2 g versus 4 g” value (plasma, 2 g versus 4 g) was 15.6 µg/g. The “DGLA LS Mean, 1 or 2 g versus 4 g” value (plasma, 2 g versus 4 g) was 2.5 µg/g, the “DHA LS Mean, 1 or 2 g versus 4 g” value (plasma, 2 g versus 4 g) was 1.5 µg/g and the “DPAn-3 LS Mean, 1 or 2 g versus 4 g” value (plasma, 2 g versus 4 g) was -9.5 µg/g. For the same molecule, the “EPA LS Mean, 1 or 2 g versus 4 g” value (plasma, 2 g versus 4 g) was -60.9 µg/g, the “EPA/AA LS Mean, 1 or 2 g versus 4 g” value (plasma, 2 g versus 4 g) was −0.41 and the “AA Mean (SD) at Baseline” value [3] was 220.9 (42.80) μg/g. For the same molecule, the “DGLA Mean at Baseline” value [3] was 57.1 µg/g, the “DHA Mean at Baseline” value [3] was 78.8 µg/g and the “DPAn-3 Mean at Baseline” value [3] was 21.7 µg/g. For the same molecule, the “EPA Mean at Baseline” value [3] was 49.1 µg/g, the “EPA/AA Mean (SD) at Baseline” value [3] was 0.2 (0.07) and the “AA Mean (SD) change from Baseline” value (plasma, 4 g daily, Day 14) was −27.2 (28.89) μg/g. The “DGLA Mean change from Baseline” value (plasma, 4 g daily, Day 14) was -22.9 µg/g, the “DHA Mean change from Baseline” value (plasma, 4 g daily, Day 14) was -10.3 µg/g and the “DPAn-3 Mean change from Baseline” value (plasma, 4 g daily, Day 14) was 24.5 µg/g. The “EPA Mean change from Baseline” value (plasma, 4 g daily, Day 14) was 207.7 µg/g, the “EPA/AA Mean (SD) change from Baseline” value (plasma, 4 g daily, Day 14) was 1.1 (0.28) and the “AA Mean (SD) change from Baseline” value (plasma, 4 g daily, Day 28) was −43.7 (32.24) μg/g. The “DGLA Mean change from Baseline” value (plasma, 4 g daily, Day 28) was -24.2 µg/g, the “DHA Mean change from Baseline” value (plasma, 4 g daily, Day 28) was -13.5 µg/g and the “DPAn-3 Mean change from Baseline” value (plasma, 4 g daily, Day 28) was 29.7 µg/g. For the same molecule, the “EPA Mean change from Baseline” value (plasma, 4 g daily, Day 28) was 215.2 µg/g, the “EPA/AA Mean (SD) change from Baseline” value (plasma, 4 g daily, Day 28) was 1.3 (0.42) and the “AA Mean (SD) change from Baseline” value (plasma, 4 g daily, Day 42) was −48.3 (22.20) μg/g. For the same molecule, the “DGLA Mean change from Baseline” value (plasma, 4 g daily, Day 42) was -22.5 µg/g, the “DHA Mean change from Baseline” value (plasma, 4 g daily, Day 42) was -13.8 µg/g and the “DPAn-3 Mean change from Baseline” value (plasma, 4 g daily, Day 42) was 32.0 µg/g. For the same molecule, the “EPA Mean change from Baseline” value (plasma, 4 g daily, Day 42) was 204.6 µg/g and the “EPA/AA Mean (SD) change from Baseline” value (plasma, 4 g daily, Day 42) was 1.3 (0.45).
